Measurements taken from the pKa sets of Baltruschat and Czodrowski (2020).

Settings: acidic group

Structure (SMILES)	pKa
Cc1cccc(C(O)C(C(=O)O)c2ccc(-c3ccccc3)cc2)c1 (centres undefined)	4.17
COc1cc2c(cc1O)[C@H]1Cc3cc(OC)c(OC)cc3[C@H](C2)N1C	9.8
O=S(=O)(NBr)c1ccccc1	4.95
Nc1ccc([N+](=O)[O-])c(B(O)O)c1	10
NC(=O)c1cccnc1	13.5
O=S1(=O)Cc2cc(Br)ccc2N=CN1	9.3
O=C1CCC(Cl)C1=O (centres undefined)	7.05
CNc1cc[nH+]c(S)n1	3.09
COc1cccc(OC)c1O	10.1
Cn1c(=O)c2[nH]c([N+](=O)[O-])nc2n(C)c1=O	3.58
N#CC(CCCCC(=O)O)c1ccccc1 (centres undefined)	4.75
CCNc1ncnc2[nH]ncc12	10.9
C=C(F)C(=O)O	2.55
CC(C)C[C@H](N)C(N)=O	7.84
C[NH+](C)Cc1cc(-c2ccccc2)cc(C[NH+](C)C)c1O	5.65
Nc1ccc(O)cc1[O-]	11.3
CN(C)c1ccc(/C=N/O)cc1	11.3
O=C(O)c1c(O)cccc1[N+](=O)[O-]	2.24
CCCCc1cc(Cl)cc(Cl)c1O	8.1
[NH3+][C@@H](CCC(=O)O)C(=O)O	2.08
Oc1ccccc1I	8.4
CC(=S)Nc1ccc([N+](=O)[O-])cc1	9.89
C[n+]1cc(S)cc2ccccc21	2.4
CCCCSCC(=O)O	3.81
CSc1ccc(C(=O)O)cc1	4.23
NC(=O)[C@@H]1CCCN1	8.82

Structure (SMILES)	pKa
O=c1ccc(O)ccc1[O-]	10.1
Cc1ccc(Br)c(C(=O)O)c1	3
CN(C)C(=O)CS	8.1
Cc1nnn(CC(=O)O)n1	2.23
Cc1ccc(S(=O)(=O)NCC(=O)[O-])cc1	11.4
N#CC(C(=O)O)C1CCCCC1 (centres undefined)	2.37
CCOP(=O)([O-])NS(=O)(=O)c1ccccc1	6.5
Cc1ccc(C(=S)Nc2ccc(Br)cc2)cc1	10.8
COc1ccc(CC(=O)O)cc1	4.36
O=[N+]([O-])c1cccc(O)c1[O-]	11.5
CN(C)c1cccc(NC=S)c1	11.8
CC(O)CC(=O)O (centres undefined)	4.5
O/N=C/c1ccccn1	10.1
Cn1cnc2nc([O-])nc(O)c21	10.6
CC(C)(/C=C/C(=O)[O-])c1cc([N+](=O)[O-])ccc1O	7.24
S=CNCc1ccccc1	12.3
O=c1cc(O)c2ccccc2o1	4.1
Oc1cc(-c2ccccc2)no1	4.01
C[n+]1ccccc1/C=C/c1ccc(O)cc1	8.4
Oc1ccc(F)cc1C[NH+]1CCCCC1	8.81
CC(I)[N+](=O)[O-] (centres undefined)	7.24
O=C([O-])C[N+](=O)[O-]	8.9
O=C(O)[C@@H]1CC[C@H](C(=O)[O-])[Se]1	4.55
NCc1nc2ccccc2[nH]1	12.8
COc1ccc(C(=S)Nc2ccccc2)cc1	11.3
C[n+]1c2ccccc2nc2ccc(O)cc21	3

Structure (SMILES)	pKa
CC(C)=CCC1C(=O)C(CC=C(C)C)(CC=C(C)C)C(O)(C(=O)[O-])C1=O (centres undefined)	9.7
NC(=O)NOCC(=O)O	2.6
Cc1cc(C)c(C)c(C(=O)O)c1C	3.43
CC#CC#CCC(=O)O	3.23
C[N+]1(CCCCCC(=O)O)CCCCC1	4.44
CNc1nc2ncncc2[nH]1	9.56
CCCP(=O)(CCC)CCC	12.2
[O-]c1nc(S)c2[nH]cnc2n1	11.4
N#Cc1cccc(-c2nnn[nH]2)c1	3.45
Cc1ccc(C(=S)Nc2ccc(Cl)c(Cl)c2)cc1	10.2
Oc1ccccc1CN1CCOCC1	10.3
CC(C#N)CC(=O)O (centres undefined)	3.95
O=C(O)[C@@H]1CC[C@@H](C(=O)O)[Se]1	3.46
O=C(O)CCc1c[nH]c[nH+]1	4
CC(C)CCP(=O)(O)CCC(C)C	3.26
Cc1ccc(O)cc1[S+](C)C	8.01
CC(=O)c1ccc(Br)cc1	18
Oc1ccc2nc3ccccc3nc2c1	7.45
O=C(O)c1csc(Br)n1	3.28
O=NNc1nc([N+](=O)[O-])nn1-c1ccccc1	3.33
O=S(O)CCCc1ccccc1	2.05
Cc1cc(C)c([N+](=O)[O-])c(C)c1O	8.98
Cc1ncc(CO)c(C)c1O	9.98
CCSC(C)O (centres undefined)	14.3

Same assay, conditions: basic group

Structure (SMILES)	pKa
CC([NH3+])C/C(N)=N/O (centres undefined)	3.75
C(=C\C=N\c1ccccc1)/C=C/Nc1ccccc1	8.52
OCCc1cnc(P(c2[nH]c(CCO)c[nH+]2)c2[nH]c(CCO)c[nH+]2)[nH]1	5.75
Cc1cc(-c2[nH]cc[nH+]2)n[nH]1	1.5
NNC(=O)c1ccc(N)cc1	3.56
NC(=O)c1cccnc1	3.32
CCOCCNc1ccc(Cl)cc1	3.28
Nc1ccc(/C=C/c2cc(N)c3ccccc3n2)cc1	9.5
CC(=O)CCN(C)C	8.95
Cc1cc(C)c2nc(C)cc(N)c2c1	10.4
Cc1cnc2c(ccc3c(C)ccnc32)c1	5.57
CCNc1ncnc2[nH]ncc12	4.6
CN(C)c1cccc2c(S(=O)(=O)[N-]CCN3CCNCCNCCNCC3)cccc12	11.8
CCC(O)CN(CC)CC(C)O (centres undefined)	9.2
C1CCN(C2CC[NH2+]CC2)CC1	7.97
Cn1cnc2ccccc21	5.65
CCN(CC)CCNc1cc(C)nc(N)n1	9.55
[NH3+]c1ccc(-c2cnc(-c3ccc(Cl)cc3)o2)cc1	0.27
CCOC(=O)C(C)N (centres undefined)	7.8
CCNCC#CCNCC	8.32
Cc1nn(C)c(N(C)C(=O)CN)c1C(=O)c1ccccc1F	7.52
COc1ccc2c3c1O[C@H]1CCC[C@H]4[C@H](NCC[C@]314)[C@H]2O	8.72
COc1cc(C)ncn1	3.65
Cc1cc([O-])[n+](C)c([O-])n1	10.1
CC(C)(C)[C@]1(O)CCN2C[C@@H](c3ccccc3)c3ccccc3[C@@H]2C1	7.03

Structure (SMILES)	pKa
CC(=O)c1cccc(N)c1	3.61
C#CCCN(C)C	8.33
CCCCc1ccc(C(=O)[O-])nc1	5.7
C#C[C@]1(O)C[C@@H](C)N(C)[C@H]2CCCC[C@@H]21	8.99
C1=C(c2nc3ccccc3s2)C2CCN1CC2	7.4
COCc1ccccc1CN(C)C	9.19
CCN(CC)Cc1cc(Cl)ccc1[O-]	11.2
CN(C)c1ccc([NH+](C)C)cc1	2.5
CCCCCCCCNCCC(=O)[O-]	10.6
NCC(O)CN	9.64
COc1cc(NS(C)(=O)=O)ccc1-c1cn2cccnc2n1	4.17
O/N=C/c1ccccn1	3.4
[NH3+]CCCCc1ccccn1	5.56
CC1(C)CC(NCCO)CC(C)(C)[NH2+]1	7.42
Nc1ccc([N+](=O)[O-])c(F)c1	-0.3
N=C1CCCC1	8.95
CCCNc1c2ccccc2nc2cccc([N+](=O)[O-])c12	7.2
N[C@@H](CCCCN1C(=O)C[C@H](N)C1=O)C(=O)[O-]	9.5
C[NH+](C)CCCNc1c2ccccc2nc2c(F)ccc([N+](=O)[O-])c12	5.41
CCOC(=O)CCCCCN	10.4
N[C@H]1CCCC[C@H]1C(=O)Oc1ccc([N+](=O)[O-])cc1	8.42
C[NH+]1CCN(C(c2ccccc2)c2ccc(Cl)cc2)CC1 (centres undefined)	2.43
CN(C)CCNCC[NH+](C)C	8.96
Nc1ncnc2nn([C@@H]3C[C@@H](O)[C@H](CO)O3)nc12	3.1
C[C@@H]1CCCC[C@@H]1N	10.6

Structure (SMILES)	pKa
Nc1ccc(-c2nc3ccccc3s2)cc1	3
CC1CCN(O)C1(C)C (centres undefined)	5.9
CCN1CCC[C@@H]1CNC(=O)c1c(OC)ccc(Cl)c1[O-]	9.54
CCC(O)CN(CCO)C(C)(C)C (centres undefined)	9.4
c1cncc(-c2ccc[nH+]c2)c1	3
NCc1nc2ccccc2[nH]1	8.02
NC1=[NH+][C@H]2C[C@@H](N1)N[C@@H]2C(=O)[O-]	5.5
CN([NH3+])C(N)=S	1.2
[NH3+]c1ccc(-c2ncc(-c3ccc(Br)cc3)o2)cc1	-0.05
CCNc1ccc(C)cc1	5.72
Nc1cccc(C(=O)[O-])c1	4.7
Nc1ccc(-c2cnc(-c3ccc(Cl)cc3)o2)cc1	3.52
CCCc1ccc(C)nn1	4.25
CC(C)[NH2+]CCN	7.7
O=C1C[C@@H]2OCC=C3CN4CC[C@@]56c7ccccc7N1[C@H]5C2[C@@]3(S(=O)(=O)[O-])C[C@H]46 (some centres undefined)	7.53
CC(C)(C)CC(=O)n1cnc(Br)c1	4
CC(CC[NH+](C)C)NN (centres undefined)	5.9
CNc1nc2ncncc2[nH]1	4.78
CCCP(=O)(CCC)CCC	4.9
CNCCN(C)CCNC	10.4
COc1cccc(N)c1	4.23
CCN(CC)CC(C)Nc1c2ccc(Cl)cc2nc2ccc(OC)cc12 (centres undefined)	9.65
CCN(C)N(C)CC	6.8
Oc1ccccc1CN1CCOCC1	7.71
Cc1ccc(Cl)cc1/C(=N/CCC[NH+](C)C)c1ccccc1	3.87

Structure (SMILES)	pKa
COc1cc2c(cc1OC)C(=O)Cc1ccc3c(c1CN(C)CC2)OCO3	8.09
N[C@@H]1C[C@H]2CCCC[C@@H]2C[C@@H]1[NH3+]	6.36
O=C([O-])CCc1c[nH]cn1	7.55
COc1cc2c(cc1O)CCN1Cc3c(ccc(OC)c3OC)C[C@@H]21	9.55
SCCNCc1cccs1	8.93
CN(C)c1ncccn1	3.96
CCOc1ccccc1N	4.51
CCNc1nc(NCC)nc(NCC)n1	5.84
Oc1ccc2nc3ccccc3nc2c1	2.6
Nc1ccnc2ccc3ncccc3c12	7.3
NCCCC#CC#CCCC(=O)[O-]	9.94
NCCc1ccccc1	9.89
[S-]c1nccc[nH+]1	1.3
COc1ccc(-c2ncc(-c3ccccc3)o2)cc1	1.25
CCN(CC)CC(O)CN(CC)CC	9.8
O=C1c2ncnc([O-])c2C(=O)c2nc[nH]c21	5.99
C[NH+]1CCN(C(c2ccccc2)c2ccccc2)CC1	2.16
O=[N+]([O-])c1ccc(NCO)cc1	-0.33
[NH3+]CCC(=O)NCCc1c[nH]cn1	6.84
c1ccc2c(c1)C1CCN2CC1	7.79
Cc1ncc(CO)c(C)c1O	5.4
CC1CN(C)CC[NH+]1C (centres undefined)	3.93
CCC(O)CN(C)CCO (centres undefined)	8.7
